{"source": "BindingDB's records for PubMed 39722476", "about": "(Nanjing University of Chinese Medicine)", "molecular_target": "Methylosome protein 50/Protein arginine N-methyltransferase 5 (Homo sapiens, UniProt O14744+Q9BQA1)", "sequence (O14744 whole entry)": "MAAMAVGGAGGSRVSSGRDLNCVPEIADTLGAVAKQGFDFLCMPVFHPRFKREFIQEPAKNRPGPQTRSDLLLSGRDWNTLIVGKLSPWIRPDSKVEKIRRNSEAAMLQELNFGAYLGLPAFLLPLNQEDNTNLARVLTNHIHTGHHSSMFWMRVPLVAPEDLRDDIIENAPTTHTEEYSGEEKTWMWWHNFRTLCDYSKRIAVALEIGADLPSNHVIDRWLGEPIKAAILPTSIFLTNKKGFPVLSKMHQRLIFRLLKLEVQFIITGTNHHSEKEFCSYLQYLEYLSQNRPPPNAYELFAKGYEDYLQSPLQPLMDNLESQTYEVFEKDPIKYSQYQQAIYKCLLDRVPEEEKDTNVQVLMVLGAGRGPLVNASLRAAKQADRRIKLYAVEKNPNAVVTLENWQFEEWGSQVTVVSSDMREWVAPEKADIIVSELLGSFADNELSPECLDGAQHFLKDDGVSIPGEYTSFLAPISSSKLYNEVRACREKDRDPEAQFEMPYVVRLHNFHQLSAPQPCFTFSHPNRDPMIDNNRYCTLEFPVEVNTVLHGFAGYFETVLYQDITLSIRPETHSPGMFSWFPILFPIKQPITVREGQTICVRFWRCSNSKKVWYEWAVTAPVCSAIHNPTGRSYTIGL", "sequence (Q9BQA1 whole entry)": "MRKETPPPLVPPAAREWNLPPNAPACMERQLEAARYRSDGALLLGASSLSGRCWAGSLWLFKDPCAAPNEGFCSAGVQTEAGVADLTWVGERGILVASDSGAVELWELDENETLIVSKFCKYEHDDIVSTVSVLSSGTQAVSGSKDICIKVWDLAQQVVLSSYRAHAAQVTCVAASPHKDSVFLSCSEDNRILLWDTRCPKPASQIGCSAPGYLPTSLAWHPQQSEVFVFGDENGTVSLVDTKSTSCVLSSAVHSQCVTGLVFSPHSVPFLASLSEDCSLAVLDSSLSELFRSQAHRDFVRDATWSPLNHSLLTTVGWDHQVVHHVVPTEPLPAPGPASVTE", "experiment": "Inhibition of recombinant N-terminal FLAG-tagged human full-length PRMT5/full length human MEP50 extracted from baculovirus expression system using [3H]-SAM as substrate preincubated for 15 mins followed by substrate addition and measured after 60 mins by multimode plate reader analysis", "data": [{"smiles": "CC(=O)N1CCC(Nc2cc3c(cn2)C2(CC2)CN(C[C@H](O)CN2CCc4ccccc4C2)C3=O)CC1", "note": "[US20240116918, Example 1]", "values": [{"measurement": "IC50", "value": 33, "unit": "nM"}]}]}
